US12060347B2 (BRISTOL-MYERS SQUIBB COMPANY, priority 2016, dated 2024)

Each compound was assayed against T1, human PAR4 (Homo sapiens, UniProt Q96RI0) (assay: PAR4 FLIPR assay: antagonism of agonist-peptide-induced calcium mobilization in PAR4-expressing HEK293 cells). Settings: H-Ala-Phe(4-F)-[…]NH2-induced intracellular calcium mobilization, 11-point curves.
T1 construct: expressed in transfected cells; host or cells: HEK293 PAR4 Clone 1.2A (BMS Arctic ID 383940)
T1 sequence (Q96RI0 18-385): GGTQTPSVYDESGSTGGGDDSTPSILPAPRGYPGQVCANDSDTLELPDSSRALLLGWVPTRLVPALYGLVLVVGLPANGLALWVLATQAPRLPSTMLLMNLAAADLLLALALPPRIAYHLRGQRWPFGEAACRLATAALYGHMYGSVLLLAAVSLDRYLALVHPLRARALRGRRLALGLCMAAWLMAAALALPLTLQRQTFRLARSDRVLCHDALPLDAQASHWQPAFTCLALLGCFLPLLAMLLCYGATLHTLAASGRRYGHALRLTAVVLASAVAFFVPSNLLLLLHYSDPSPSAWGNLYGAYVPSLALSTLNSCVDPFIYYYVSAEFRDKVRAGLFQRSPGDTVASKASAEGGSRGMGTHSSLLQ
Type: cell-based

Row | SMILES | IC50
1 | COc1cnc2c(-c3nc4cc(F)c(O[C@@H](C)[C@@H](C)OC(=O)Nc5cncc(F)c5)cc4s3)cc(Cl)cc2c1 [Example 782, (2R,3S)-3-((2-(6-chloro-3-methoxyquinolin-8-yl)-5-fluorobenzo[d]thiazol-6-yl)oxy)butan-2-yl (5-fluoropyridin-3-yl)carbamate] | 2.7 nM
2 | COc1cnc2c(-c3nc4cc(F)c(O[C@@H](C)[C@@H](C)OC(=O)Nc5ccc(C(F)(F)F)nc5)cc4s3)cc(Cl)cc2c1 [Example 783, (2R,3S)-3-((2-(6-chloro-3-methoxyquinolin-8-yl)-5-fluorobenzo[d]thiazol-6-yl)oxy)butan-2-yl (6-(trifluoromethyl)pyridin-3-yl)carbamate] | 4.2 nM
3 | COc1cnc2c(-c3nc4cc(F)c(O[C@@H](C)[C@@H](C)OC(=O)Nc5ccc(OC)nc5)cc4s3)cc(Cl)cc2c1 [Example 784, (2R,3S)-3-((2-(6-chloro-3-methoxyquinolin-8-yl)-5-fluorobenzo[d]thiazol-6-yl)oxy)butan-2-yl (6-methoxypyridin-3-yl)carbamate] | 2.8 nM
4 | COc1cncc(NC(=O)O[C@H](C)[C@H](C)Oc2cc3sc(-c4cc(Cl)cc5cc(OC)cnc45)nc3cc2F)c1 [Example 785, (2R,3S)-3-((2-(6-chloro-3-methoxyquinolin-8-yl)-5-fluorobenzo[d]thiazol-6-yl)oxy)butan-2-yl (5-methoxypyridin-3-yl)carbamate] | 3.5 nM
5 | COc1cnc2c(-c3nc4cc(F)c(O[C@@H](C)[C@@H](C)OC(=O)Nc5cncc(C#N)c5)cc4s3)cc(Cl)cc2c1 [Example 786, (2R,3S)-3-((2-(6-chloro-3-methoxyquinolin-8-yl)-5-fluorobenzo[d]thiazol-6-yl)oxy)butan-2-yl (5-cyanopyridin-3-yl)carbamate] | 2.2 nM
6 | COc1cnc2c(-c3nc4cc(F)c(O[C@@H](C)[C@@H](C)OC(=O)Nc5cnc(C)c(C)c5)cc4s3)cc(Cl)cc2c1 [Example 787, (2R,3S)-3-((2-(6-chloro-3-methoxyquinolin-8-yl)-5-fluorobenzo[d]thiazol-6-yl)oxy)butan-2-yl (5,6-dimethylpyridin-3-yl)carbamate] | 2.9 nM
7 | COc1cnc2c(-c3nc4cc(F)c(O[C@@H](C)[C@@H](C)OC(=O)Nc5cccnc5)cc4s3)cc(Cl)cc2c1 [Example 788, (2R,3S)-3-((2-(6-chloro-3-methoxyquinolin-8-yl)-5-fluorobenzo[d]thiazol-6-yl)oxy)butan-2-yl pyridin-3-ylcarbamate] | 3.1 nM
8 | COc1cnc2c(-c3nc4cc(F)c(O[C@@H](C)[C@@H](C)OC(=O)Nc5ccc(F)nc5)cc4s3)cc(Cl)cc2c1 [Example 789, (2R,3S)-3-((2-(6-chloro-3-methoxyquinolin-8-yl)-5-fluorobenzo[d]thiazol-6-yl)oxy)butan-2-yl (6-fluoropyridin-3-yl)carbamate] | 2.4 nM
9 | COc1cnc2c(-c3nc4cc(F)c(O[C@@H](C)[C@@H](C)OC(=O)Nc5ccncc5)cc4s3)cc(Cl)cc2c1 [Example 790, (2R,3S)-3-((2-(6-chloro-3-methoxyquinolin-8-yl)-5-fluorobenzo[d]thiazol-6-yl)oxy)butan-2-yl pyridin-4-ylcarbamate] | 4.4 nM
10 | COc1cnc2c(-c3nc4cc(F)c(O[C@@H](C)[C@@H](C)OC(=O)Nc5cnc(C)nc5)nc4s3)cc(C)cc2c1 [Example 791, (2R,3S)-3-((6-fluoro-2-(3-methoxy-6-methylquinolin-8-yl)thiazolo[5,4-b]pyridin-5-yl)oxy)butan-2-yl (2-methylpyrimidin-5-yl)carbamate] | 2.3 nM
11 | COc1cnc2c(-c3nc4cc(F)c(O[C@@H](C)[C@@H](C)OC(=O)Nc5cnc(CO)nc5)nc4s3)cc(C)cc2c1 [Example 792, (2R,3S)-3-((6-fluoro-2-(3-methoxy-6-methylquinolin-8-yl)thiazolo[5,4-b]pyridin-5-yl)oxy)butan-2-yl (2-(hydroxymethyl)pyrimidin-5-yl)carbamate] | 11 nM
12 | COc1cnc2c(-c3nc4cc(F)c(O[C@@H](C)[C@@H](C)OC(=O)Nc5cnc(CO)nc5)nc4s3)cc(Cl)cc2c1 [Example 793, (2R,3S)-3-((2-(6-chloro-3-methoxyquinolin-8-yl)-6-fluorothiazolo[5,4-b]pyridin-5-yl)oxy)butan-2-yl (2-(hydroxymethyl)pyrimidin-5-yl)carbamate] | 24 nM
13 | COc1cnc2c(-c3nc4cc(F)c(OC[C@@H](C)OC(=O)Nc5cnc(CO)nc5)nc4s3)cc(Cl)cc2c1 [Example 794, (R)-1-((2-(6-chloro-3-methoxyquinolin-8-yl)-6-fluorothiazolo[5,4-b]pyridin-5-yl)oxy)propan-2-yl (2-(hydroxymethyl)pyrimidin-5-yl)carbamate] | 10 nM
14 | COc1cnc2c(-c3nc4c(Cl)c(F)c(O[C@@H](C)[C@@H](C)OC(=O)Nc5cnc(OCCO)nc5)cc4s3)cc(Cl)cc2c1 [Example 795, (2R,3S)-3-((4-chloro-2-(6-chloro-3-methoxyquinolin-8-yl)-5-fluorobenzo[d]thiazol-6-yl)oxy)butan-2-yl (2-(2-hydroxyethoxy)pyrimidin-5-yl)carbamate] | 0.8 nM
15 | COc1cnc2c(-c3nc4c(Cl)c(F)c(O[C@@H](C)[C@@H](C)OC(=O)Nc5cnc(OC[C@@H](C)O)nc5)cc4s3)cc(Cl)cc2c1 [Example 796, (2R,3S)-3-((4-chloro-2-(6-chloro-3-methoxyquinolin-8-yl)-5-fluorobenzo[d]thiazol-6-yl)oxy)butan-2-yl (2-((R)-2-hydroxypropoxy)pyrimidin-5-yl)carbamate] | 1.3 nM
16 | COc1cnc2c(-c3nc4c(Cl)c(F)c(O[C@@H](C)[C@@H](C)OC(=O)Nc5ccc(F)nc5)cc4s3)cc(Cl)cc2c1 [Example 797, (2R,3S)-3-((4-chloro-2-(6-chloro-3-methoxyquinolin-8-yl)-5-fluorobenzo[d]thiazol-6-yl)oxy)butan-2-yl (6-fluoropyridin-3-yl)carbamate] | 3.1 nM
17 | COc1cnc2c(-c3nc4c(Cl)c(F)c(O[C@@H](C)[C@@H](C)OC(=O)Nc5ccncc5)cc4s3)cc(Cl)cc2c1 [Example 798, (2R,3S)-3-((4-chloro-2-(6-chloro-3-methoxyquinolin-8-yl)-5-fluorobenzo[d]thiazol-6-yl)oxy)butan-2-yl pyridin-4-ylcarbamate] | 2.5 nM
18 | COc1cnc2c(-c3nc4c(Cl)c(F)c(O[C@@H](C)[C@@H](C)OC(=O)Nc5cccnc5)cc4s3)cc(Cl)cc2c1 [Example 799, (2R,3S)-3-((4-chloro-2-(6-chloro-3-methoxyquinolin-8-yl)-5-fluorobenzo[d]thiazol-6-yl)oxy)butan-2-yl pyridin-3-ylcarbamate] | 2.9 nM
19 | COc1cnc2c(-c3nc4c(Cl)c(F)c(O[C@@H](C)[C@@H](C)OC(=O)Nc5cnc(C)c(C)c5)cc4s3)cc(Cl)cc2c1 [Example 800, (2R,3S)-3-((4-chloro-2-(6-chloro-3-methoxyquinolin-8-yl)-5-fluorobenzo[d]thiazol-6-yl)oxy)butan-2-yl (5,6-dimethylpyridin-3-yl)carbamate] | 2.5 nM
20 | COc1cnc2c(-c3nc4c(Cl)c(F)c(O[C@@H](C)[C@@H](C)OC(=O)Nc5ccc(OC)nc5)cc4s3)cc(Cl)cc2c1 [Example 801, (2R,3S)-3-((4-chloro-2-(6-chloro-3-methoxyquinolin-8-yl)-5-fluorobenzo[d]thiazol-6-yl)oxy)butan-2-yl (6-methoxypyridin-3-yl)carbamate] | 2.6 nM
